Patent publication US9381349B2, “Apparatus for treating cerebral neurovascular disorders including headaches by neural stimulation” (priority 1997, dated 2016)
“Also recorded” adds a separate entry of the source. Where two headings read alike, the source gives them in different places.

What was measured:
[1] = test system: acute migraine episodes; type: in vivo, human; parameters: key to Pain Rating After Administration: 0 = no pain, 10 = worst pain imaginable; settings: for Mean Time Until Maximal Effect: no unit in table (minutes); for Pain Rating After Administration / Pain Relief: mean; for Pain Rating After Administration / Pain Relief / Rate of Pain Relief (migraine pain reduction per minute per gram of drug): 10-point pain scale
Text: The purpose of the experiments described in this Example was to determine the efficacy of dorsonasal administration of ropivacaine for inhibition of acute migraine episodes. Ropivacaine was dorsonasally administered to individual patients experiencing head pain, other symptoms, or both, believed to be associated with an acute migraine episode. Patients assessed head pain prior to and after ropivacaine administration.
Ropivacaine-HCl (NAROPINT™, Astra USA, Westborough, Mass.) was used as the commercially-available 0.75% (w/v) solution, and was obtained in 30 milliliter, sterile injectable vials.
Three methods were used to achieve dorsonasal delivery of ropivacaine to individual patients. Ropivacaine was administered to a first group of patients by an intranasal drip method. Ropivacaine was administered to a second group using cotton swabs, the absorbent portions of which were saturated with the ropivacaine solution. Ropivacaine was administered to patients in a third group by spraying the ropivacaine solution into each nostril, using either a squeeze-type spray bottle or a metered-dose spray bottle.
The intranasal drip method used to administer ropivacaine to the first group of patients was a based on the method described by Barre (1982, Headache 22:69-73), except that the ropivacaine solution was used in place of the solution used by Bane. Approximately 0.75 milliliter to approximately 1.0 milliliter of the ropivacaine solution was administered by way of each of the nostrils of each patient.
The cotton swab method used to administer ropivacaine to the second group of patients comprised gently inserting cotton swabs, sequentially and bilaterally, into the nostrils of patients and urging the swabs dorsally until their absorbent portions contacted portions of nasal epithelium located dorsal to the middle conchae. Each swab was left in place for approximately one minute, and was then withdrawn. Approximately 0.5 milliliter of the ropivacaine solution was delivered to each nostril using this method.
Patients in a third group were administered ropivacaine by spraying less than about 0.5 milliliter of the ropivacaine solution into each of the patient's nostrils using either a sterile squeeze bottle or a sterile metered-dose spray bottle of known design. The design and operation of each of these spray bottles are well known in the art.
Prior to administration of ropivacaine, each patient was placed in a supine position with the patient's head hyperextended approximately 45 degrees and rotated approximately 30 degrees to the right side. In this position, an imaginary line extending from the region of the nasal epithelium overlying the SPG of the patient through the patient's left nostril was approximately vertical. Ropivacaine was then administered to the left nostril of the patient as described for each of the three groups of patients. Ropivacaine was administered to each patient's right nostril after rotating the patient's head approximately 30 degrees to the left. Ropivacaine was administered to both nostrils of each patient to prevent cases of unilateral migraine from developing into contralateral migraine.
Prior to ropivacaine administration, each patient rated perceived headache pain according to a standard pain scale of the type used in the art. Patients were asked to rank the severity of pain which they were experiencing on a scale from 0 (no pain) to 10 (worst pain imaginable). This ten-point pain rating scale is analogous to, but has more gradations than, the four-point rating system used by the International Headache Society (IHS; Headache Classification Committee of the International Headache Society, 1988, Cephalalgia 8(Suppl. 7):19-28). Ropivacaine was administered to one nostril of each patient, and then to the other. The time required to administer ropivacaine to both nostrils of each patient was approximately three minutes. […]

[2] = cited from earlier work
[3] = in vivo; cited from earlier work
[4] = ropivacaine 0.75% (w/v), 2 Metered Sprays per nostril, individual patients, pain scale 0-10
[5] = ropivacaine 0.75% (w/v), 2 Sprays per nostril (squeeze bottle), individual patients, pain scale 0-10
[6] = ropivacaine 0.75% (w/v), 2 cc Drops (nasal drip), individual patients, pain scale 0-10
[7] = ropivacaine 0.75% (w/v), Sat'd Cotton Swab, individual patients, pain scale 0-10
[8] = ropivacaine 0.75% (w/v), Sat'd Cotton Swab, individual patients, pain scale 0-10, listed as R
[9] = ropivacaine vs literature rizatriptan data (Kramer et al.)
[10] = ropivacaine, Cotton Swab, 24 patients
[11] = ropivacaine, Nasal Drops, 3 patients
[12] = ropivacaine, Nasal Spray, 10 patients
[13] = ropivacaine, nasal drops, three patients

Question: For `CCCN1CCCC[C@H]1C(=O)Nc1c(C)cccc1C` [Ropivacaine, ropivacaine], which “Adverse effects of administration” value ([1]; human, in vivo) is on record?
Answer: one patient experienced an allergic response to ropivacaine administration

Question: What about the Apparent allergic reaction ([1]; human, in vivo) of the same compound?
Answer: allergic reaction between 5

Question: What about the “Oropharyngeal numbness” value ([1]; human, in vivo) of the same compound?
Answer: 6

Question: What about the “Time to half maximal inhibition of CNvD or symptom” value ([1]; intranasal or dorsonasal administration) of the same compound?
Answer: within about three minutes

Question: What about the “Pain 10 min post-treatment” value [1, 4] of the same compound?
Answer: Pain 10 min post-treatment: 0

Question: And the “Pain 15 min post-treatment” value [1, 4]?
Answer: Pain 15 min post-treatment: 5

Question: And the “Pain 20 min post-treatment” value [1, 4]?
Answer: Pain 20 min post-treatment: 3

Question: What about the “Pain 45 min post-treatment” value [1, 4] of the same compound?
Answer: Pain 45 min post-treatment: 0

Question: What about the “Pain 60 min post-treatment” value [1, 4] of the same compound?
Answer: Pain 60 min post-treatment: 2

Question: And the “Pain 90 min post-treatment” value [1, 4]?
Answer: Pain 90 min post-treatment: 0

Question: What about the “Pain 2 min post-treatment” value [1, 5] of the same compound?
Answer: Pain 2 min post-treatment: 0

Question: What about the “Pain 10 min post-treatment” value [1, 5] of the same compound?
Answer: Pain 10 min post-treatment: 0

Question: What about the “Pain 15 min post-treatment” value [1, 5] of the same compound?
Answer: Pain 15 min post-treatment: 2

Question: What about the “Pain 20 min post-treatment” value [1, 5] of the same compound?
Answer: 0

Question: And the “Pain 30 min post-treatment” value [1, 5]?
Answer: 0

Question: What about the “Pain 3 min post-treatment” value [1, 6] of the same compound?
Answer: Pain 3 min post-treatment: 0

Question: And the “Pain 60 min post-treatment” value [1, 6]?
Answer: Pain 60 min post-treatment: 0

Question: What about the “Pain 15 min post-treatment” value ([1]; ropivacaine 0.75% (w/v), 2 cc Drops (nasal drip), individual patients, pain scale 0-10, listed as R) of the same compound?
Answer: Pain 15 min post-treatment: 0; also recorded: Pain 15 min post-treatment: 5

Question: And the “Persistence of residual pain” value ([1]; ropivacaine 0.75% (w/v), Sat'd Cotton Swab, P#40)?
Answer: Level 5 pain endured 8 hours

Question: What about the “Pain 1 min post-treatment” value [1, 7] of the same compound?
Answer: Pain 1 min post-treatment: 0

Question: What about the “Pain 8 min post-treatment” value [1, 7] of the same compound?
Answer: Pain 8 min post-treatment: 0

Question: And the “Pain 15 min post-treatment” value [1, 7]?
Answer: Pain 15 min post-treatment: 0

Question: What about the “Pain 30 min post-treatment” value [1, 7] of the same compound?
Answer: Pain 30 min post-treatment: 5

Question: And the “Pain 18 hrs post-treatment” value [1, 7]?
Answer: Pain 18 hrs post-treatment: 8

Question: What about the “Pain 24 hours post-treatment” value [1, 7] of the same compound?
Answer: Pain 24 hours post-treatment: 1

Question: What about the “Pain 2 min post-treatment” value [1, 8] of the same compound?
Answer: Pain 2 min post-treatment: 1; also recorded: Pain 2 min post-treatment: 0

Question: And the “Pain 3 min post-treatment” value [1, 8]?
Answer: Pain 3 min post-treatment: 0; also recorded: Pain 3 min post-treatment: 1

Question: What about the “Pain 5 min post-treatment” value [1, 8] of the same compound?
Answer: Pain 5 min post-treatment: 0; also recorded: Pain 5 min post-treatment: 1; also recorded: Pain 5 min post-treatment: 2

Question: What about the “Pain 10 min post-treatment” value [1, 8] of the same compound?
Answer: Pain 10 min post-treatment: 1; also recorded: Pain 10 min post-treatment: 0

Question: And the “Pain 20 min post-treatment” value [1, 8]?
Answer: Pain 20 min post-treatment: 3; also recorded: Pain 20 min post-treatment: 0

Question: And the “Patients with significant pain reduction” value ([1]; ropivacaine 0.75% (w/v), cotton swab)?
Answer: 100%

Question: What about the “Effectiveness to reduce pain associated with migraine” value ([1]; ropivacaine 0.75% (w/v), dorsonasal spray) of the same compound?
Answer: 100%

Question: What about the Pain following spray ([1]; ropivacaine 0.75% (w/v), retreated with 2 Sprays 18 hrs after swab treatment (P#14), pain scale 0-10) of the same compound?
Answer: 0

Question: And the “Response rate compared with lidocaine (FIG. 3)” value ([1]; ropivacaine vs literature lidocaine data (Maizels et al.))?
Answer: nearly two-fold greater response rate

Question: And the “Rebound rate compared with rizatriptan” value [1, 9]?
Answer: lower than the rebound rate following rizatriptan administration

Question: And the “Response rate compared with rizatriptan” value [1, 9]?
Answer: greater than the response rate obtained by administration of rizatriptan

Question: And the “Onset of relief and response rate compared with sumatriptan (FIG. 3)” value ([1]; ropivacaine vs literature subcutaneous sumatriptan data)?
Answer: earlier onset of relief and a higher response rate

Question: And the “Mean Reduction in Pain Rating” value [1, 10]?
Answer: 8.64 IHS points

Question: What about the “Mean Time Until Maximal Effect” value [1, 10] of the same compound?
Answer: 7.41

Question: What about the “Pain Rating After Administration” value ([1]; ropivacaine, Cotton Swab) of the same compound?
Answer: 0.33

Question: And the “Pain Relief” value ([1]; ropivacaine, Cotton Swab)?
Answer: 8.73

Question: What about the “Rebound Rate” value ([1]; ropivacaine, Dorsonasal Spray) of the same compound?
Answer: 10%

Question: And the “Relative Efficacy (Rate of Pain Relief divided by that of intranasally spray-administered lidocaine)” value ([1]; ropivacaine, Dorsonasal Spray)?
Answer: 2.45

Question: And the “Rate of Pain Relief (migraine pain reduction per minute per gram of drug)” value ([1]; ropivacaine, Dorsonasal Spray)?
Answer: 24.5

Question: And the “Rebound Rate” value ([1]; ropivacaine, Dorsonasal Swab)?
Answer: 4%

Question: What about the “Relative Efficacy (Rate of Pain Relief divided by that of intranasally spray-administered lidocaine)” value ([1]; ropivacaine, Dorsonasal Swab) of the same compound?
Answer: 15.5

Question: What about the “Rate of Pain Relief (migraine pain reduction per minute per gram of drug)” value ([1]; ropivacaine, Dorsonasal Swab) of the same compound?
Answer: 155

Question: And the “Rate of Pain Relief” value ([1]; ropivacaine, Nasal Drops)?
Answer: 1.25 IHS points per minute

Question: What about the “Mean Reduction in Pain Rating” value [1, 11] of the same compound?
Answer: 9.00 IHS points

Question: What about the “Mean Time Until Maximal Effect” value [1, 11] of the same compound?
Answer: 26.0

Question: What about the “Pain Rating After Administration” value ([1]; ropivacaine, Nasal Drops) of the same compound?
Answer: 0.00

Question: And the “Pain Relief” value ([1]; ropivacaine, Nasal Drops)?
Answer: 9.00

Question: What about the “Rate of Pain Relief” value ([1]; ropivacaine, Nasal Spray) of the same compound?
Answer: 0.287 IHS points per minute

Question: What about the “Mean Reduction in Pain Rating” value [1, 12] of the same compound?
Answer: 6.22 IHS points

Question: What about the “Mean Time Until Maximal Effect” value [1, 12] of the same compound?
Answer: 33.9

Question: What about the “Pain Rating After Administration” value ([1]; ropivacaine, Nasal Spray) of the same compound?
Answer: 1.00

Question: And the “Pain Relief” value ([1]; ropivacaine, Nasal Spray)?
Answer: 6.22

Question: What about the “Patients with complete relief” value ([1]; ropivacaine, all routes) of the same compound?
Answer: 72%

Question: And the “Patients with migraine inhibited / significant (greater than 50%) reduction of migraine severity” value ([1]; ropivacaine, all routes, thirty-seven migraine patients)?
Answer: 92%

Question: What about the “Average reduction in perceived pain” value ([1]; ropivacaine, all routes, within one hour, usually within 15 minutes or less) of the same compound?
Answer: 90%

Question: And the “Rebound of migraine, patients” value ([1]; ropivacaine, all routes, within twenty-four hours of treatment)?
Answer: 5.4%

Question: What about the “Mean time between treatment and perception of the peak effect” value ([1]; ropivacaine, cotton swab) of the same compound?
Answer: 7.41 ± 1.47 min

Question: And the “Patients achieving a pain severity rating of zero” value ([1]; ropivacaine, cotton swab)?
Answer: 72%

Question: And the “Patients achieving a pain severity rating of zero or one” value ([1]; ropivacaine, cotton swab)?
Answer: 95%

Question: And the Patients with rebound ([1]; ropivacaine, cotton swab)?
Answer: 4%

Question: And the “Rate of Pain Relief” value ([1]; ropivacaine, cotton swab)?
Answer: 2.32 IHS points per minute

Question: What about the “Mean peak headache severity rating reduction” value ([1]; ropivacaine, cotton swab, twenty-four patients) of the same compound?
Answer: 8.73±0.249 points

Question: And the “Mean post-administration pain severity rating at the time of peak effect” value ([1]; ropivacaine, cotton swab, twenty-four patients, mean±standard error, out of 10 points)?
Answer: 0.33±0.14 points

Question: What about the “Potency relative to intranasally spray-administered lidocaine (pain relief per unit weight)” value ([1]; ropivacaine, dorsonasally spray-administered) of the same compound?
Answer: 2.4 times

Question: And the “Potency relative to intranasally spray-administered lidocaine (pain relief per unit weight)” value ([1]; ropivacaine, dorsonasally swab-administered)?
Answer: more than 15 times

Question: And the “Mean time between treatment and perception of the peak effect” value [1, 13]?
Answer: 26.00 ± 17.37 min

Question: And the Migraine rebound [1, 13]?
Answer: None of the three patients experienced migraine rebound

Question: What about the “Mean peak headache severity rating reduction” value ([1]; ropivacaine, nasal drops, three patients, out of 10 points) of the same compound?
Answer: 9.00 points

Question: What about the “Mean time between treatment and perception of the peak effect” value ([1]; ropivacaine, nasal spray, ten patients) of the same compound?
Answer: 33.9 ± 8.48 min

Question: What about the “Mean peak headache severity rating reduction” value ([1]; ropivacaine, nasal spray, ten patients, out of 10 points) of the same compound?
Answer: 6.22±0.66 points

Question: And the “Mean headache pain severity rating reduction in patients without complete relief” value ([1]; ropivacaine, nasal spray, the remainder of ten patients)?
Answer: 87.5±6.49%

Question: What about the Patients without rebound ([1]; ropivacaine, patients observed for up to seven days) of the same compound?
Answer: 95%

Question: What about the “Proportion bound to protein in vivo” value [2] of the same compound?
Answer: Approximately 95%

Question: What about the Cardiotoxicity [3] of the same compound?
Answer: this side effect is not exhibited

Question: And the “Cardiovascular and central nervous system toxicity” value [3]?
Answer: lower cardiovascular and central nervous system toxicity than bupivacaine
